Test results: US20130183239A1, “ISOTOPIC CARBON CHOLINE ANALOGS” (IMPERIAL COLLEGE, priority 2010, published 2013)

Tests used:
[1] = Potassium permanganate oxidation study; type: physicochemical; details: 1 hour post-treatment with potassium permanganate, room temperature, radio-HPLC
Source text: Reagents and Conditions: i) KMnO4, Na2CO3, H2O, rt.

HCT116 tumors = test system: HCT116 tumors; design: AUC: unit not given beside the values
Procedure: (§1) Dynamic ^11C-choline, ^11C-D4-choline and ^18F-D4-choline imaging scans were carried out on a dedicated small animal PET scanner (Siemens Inveon PET module, Siemens Medical Solutions USA, Inc., Malvem, Pa., USA) following a bolus i.v. injection in tumor-bearing mice of either ˜3.7 MBq for ^18F studies, or ˜18.5 MBq for ^11C. Dynamic scans were acquired in list mode format over 60 min. The acquired data were then sorted into 0.5 mm sinogram bins and 19 time frames for image reconstruction (4×15 s, 4×60 s, and 11×300 s), which was done by filtered back projection. For input function analysis, data were sorted into 25 time frames for image reconstruction (8×5 s, 1×20 s, 4×40 s, 1×80 s, and 11×300 s). The Siemens Inveon Research Workplace software was used for visualization of radiotracer uptake in the tumor; 30 to 60 min cumulative images of the dynamic data were employed to define 3-dimensional (3D) regions of interest (ROIs). Arterial input function was estimated as follows: a single voxel 3D ROI was manually drawn in the center of the heart cavity using 2 to 5 min cumulative images. Care was taken to minimize ROI overlap with the myocardium. The count densities were averaged for all ROIs at each time point to obtain a time versus radioactivity curve (TAC). Tumor TACs were normalized to injected dose, measured by a VDC-304 dose calibrator (Veenstra Instruments, Joure, The Netherlands), and expressed as percentage injected dose per mL tissue. The area under the TAC, calculated as the integral of % ID/mL from 0-60 min, and the normalized uptake of radiotracer at 60 min (% ID/mL60) were also used for comparisons.
(§2) A 2-tissue irreversible compartmental model was employed to fit the TACs, as has been previously established for ^11C-choline (Kenny L M, Contractor K B, Hinz R, et al. Reproducibility of [11C]choline-positron emission tomography and effect of trastuzumab. Clin Cancer Res. Aug. 15 2010; 16(16):4236-4245; and Sutinen E, Nurmi M, Roivainen A, et al. Kinetics of [(11)C]choline uptake in prostate cancer: a PET study. Eur J Nucl Med Mol. Imaging. March 2004; 31(3):317-324). An estimate of the whole blood TAC (wbTAC(t)) was derived from the PET image itself, as described above. […] Therefore it was fitted with a sum of 3 exponentials from the peak on and the fitted function was used as input function in the kinetic modeling (after metabolite correction, see below). […] The pf values were fitted to a sum of two exponentials with the constraint pf(t=0)=1 to obtain the function pf(t). The parent whole blood TAC wbTACPAR(t) was then computed by multiplying wbTAC(t) and pf(t) and used as input function to estimate the parameters K1 (mL/cm^3/min), k2 (1/min), k3 (1/min) and Vb (unitless). The steady state net irreversible uptake rate constant Ki (mL/cm^3/min) was calculated from the estimated microparameters as K1k3/(k2+k3).

[2] = test system: malignant melanoma A375 tumors; design: AUC: unit not given beside the values
Procedure: as §1, §2

[3] = test system: prostate adenocarcinoma PC3-M tumors; design: AUC: unit not given beside the values
Procedure: as §1
For PET imaging, tumors were grown to 100 mm^3 prior to imaging.
as §2

[4] = test system: human melanoma (A375), prostate (PC3-M) and colon (HCT116) cancer cell lines; assay: In vitro 18F-D4-choline uptake in cancer cell lines; type: cell-based; details: the three cell lines over 30 min
Procedure: Uptake was measured in vehicle-treated (closed symbols) and hemicholinium-3-treated cells (5 mM; open symbols). Mean values+SEM are shown (n=3). Insert: representative western blot of choline kinase-α expression in the three cell lines. Actin was used as a loading control. Abbreviations: CKα, choline kinase alpha.
Cells (5×10^5) were plated into 6-well plates the night prior to analysis. On the day of the experiment, fresh growth medium, containing 40 μCi ^18F-D4-choline, was added to individual wells. Cell uptake was measured following incubation at 37° C. in a humidified atmosphere of 5% CO2 for 60 min. Plates were subsequently placed on ice, washed 3 times with ice-cold PBS and lysed in RIPA buffer (Thermo Fisher Scientific Inc., Rockford, Ill., USA; 1 mL, 10 min). […] Aliquots were snap-frozen and used for protein determination following radioactive decay using a BCA 96-well plate assay (Thermo Fisher Scientific Inc., Rockford, Ill., USA). Data were expressed as percent of total radioactivity per mg protein. For hemicholinium-3 treatment (5 mM; Sigma-Aldrich), cells were incubated with the compound 30 min prior to addition of radioactivity and for the duration of the uptake time course. […]

[5] = mouse, in vivo, iv
choline oxidase = assay: Enzymatic oxidation study using choline oxidase; details: 60 minute time point, radio-HPLC
[6] = HCT116 tumors, two-tissue irreversible model, n=3
[7] = HCT116 tumors, 2-tissue irreversible model
[8] = A375 tumors, 2-tissue irreversible model
[9] = PC3-M tumors, 2-tissue irreversible model

## [2H]C([2H])(O)C([2H])([2H])[N+](C)(C)C[18F] [[^18F]D4-FCH, [^18F]fluoromethyl-[1,2-^2H4]-choline]
[1]
  parent compound still present: ~80%
HCT116 tumors; HCT116 tumors, dynamic PET
  tumor tracer kinetics between 30 and 60 min: Slow wash-out of activity
HCT116 tumors; [6]
  decrease in Ki compared to 11C-D4-choline: 49.2%
  decrease in k3 compared to 11C-D4-choline: 75.2%
HCT116 tumors; [7]
  K1′: 0.142 ± 0.027
  Ki: 0.008 ± 0.001 mL/cm^3/min
  k3: 0.039 ± 0.003 min⁻¹
HCT116 tumors; mouse, in vivo
  AUC: 114.5 ± 7.0
  NUV60: 1.81 ± 0.11 % ID/mL
  tumor radiotracer uptake by PET: no higher
[2]; [8]
  K1′: 0.111 ± 0.021
  Ki: 0.006 ± 0.002 mL/cm^3/min
  k3: 0.030 ± 0.008 min⁻¹
[2]; mouse, in vivo
  AUC: 107.3 ± 7.7
  NUV60: 1.71 ± 0.14 % ID/mL
[3]; [9]
  K1′: 0.090 ± 0.007
  Ki: 0.009 ± 0.002 mL/cm^3/min
  k3: 0.040 ± 0.006 min⁻¹
[3]; mouse, in vivo
  AUC: 121.3 ± 3.1
  NUV60: 1.97 ± 0.07 % ID/mL
  increase in % ID/mLmax, smaller versus larger tumors: 1.4 fold
  increase in normalized uptake at 60 min, smaller versus larger tumors: 2.4 fold
  time to maximal tumor-specific radioactivity: ≤ 5 min
[4]
  in vitro uptake of 18F-D4-choline: similar
[5]
  conversion to betaine metabolite in plasma: ~40%
Choline oxidase
  parent radiotracer present: 29±4%
